Each structure is given as a SMILES string. pIC50: −log10 of the molar value.

The values that follow come from BindingDB's records for PubMed 34726055 (Central University of Punjab, 2022).

The assay addresses Pyruvate kinase PKLR (Homo sapiens) (UniProt P30613). The assay is described as follows: Inhibition of human erythrocytes pyruvate kinase.

Pyruvate kinase PKLR (Homo sapiens), sequence (P30613 whole entry, looked up): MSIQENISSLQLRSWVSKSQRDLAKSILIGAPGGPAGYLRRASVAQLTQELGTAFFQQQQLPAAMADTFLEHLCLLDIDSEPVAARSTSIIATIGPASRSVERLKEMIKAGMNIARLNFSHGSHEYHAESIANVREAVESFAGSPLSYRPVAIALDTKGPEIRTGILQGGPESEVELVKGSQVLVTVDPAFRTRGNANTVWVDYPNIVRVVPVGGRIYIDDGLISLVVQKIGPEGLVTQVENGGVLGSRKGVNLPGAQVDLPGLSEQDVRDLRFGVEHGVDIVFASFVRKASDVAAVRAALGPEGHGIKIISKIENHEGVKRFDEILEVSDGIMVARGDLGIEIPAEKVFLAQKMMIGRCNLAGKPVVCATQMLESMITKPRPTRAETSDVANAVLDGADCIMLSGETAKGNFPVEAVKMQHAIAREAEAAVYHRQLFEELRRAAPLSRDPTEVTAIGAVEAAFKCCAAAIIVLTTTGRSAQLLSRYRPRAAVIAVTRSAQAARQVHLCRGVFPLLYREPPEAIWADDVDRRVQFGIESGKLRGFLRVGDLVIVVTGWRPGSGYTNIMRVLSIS

In the case of `O=C(O)c1ccc(SC2=NS(=O)(=O)c3ccccc32)cc1`, the pIC50 was 5.10.

What is called pIC50 is the negative decadic logarithm of the IC50, by convention in mol/L.
